According to patent US9155693B2, “Solubilized magnolol analogs” (Colgate-Palmolive Company, priority 2011, dated 2015):

Tests used:
[1] = Solubility of magnolol analogs in the combination of PPG-1-PEG-9 lauryl glycol ether, coceth-7 and PEG-40 hydrogenated castor oil (Eumulgin HPS); format: physicochemical; settings: PPG-1-PEG-9 lauryl glycol ether in combination with coceth-7 and PEG-40 hydrogenated castor oil (Eumulgin HPS)
Excerpt: The PPG-1-PEG-9 lauryl glycol ether can also be included in combination with coceth-7 and PEG-40 hydrogenated castor oil. This combination is available as Eumulgin™ HPS from Cognis Corporation. When this combination is used, the solubility stays the same except for butyl magnolol. This combination solubilizes up to 100 g per liter of butyl magnolol as compared to up to 50 g per liter for PPG-1-PEG-9 lauryl glycol ether alone. In certain embodiments, the amount of this combination is at least 10 times the weight of butyl magnolol.

[2] = format: physicochemical
Excerpt: The PPG-1-PEG-9 lauryl glycol ether is capable of solubilizing up to 100 g per liter of neat propyl magnolol or isopropyl magnolol or up to 50 g per liter of butyl magnolol or isobutyl magnolol. In certain embodiments, the amount of PPG-1-PEG-9 lauryl glycol ether is at least 10 times the weight of the propyl magnolol or isopropyl magnolol in the composition. In certain embodiments, the amount of PPG-1-PEG-9 lauryl glycol ether is at least 20 times the weight of butyl or isobutyl magnolol in the composition.
PPG-1-PEG-9 lauryl glycol ether is available as Eumulgin™ L from Cognis Corporation.

| amount solubilized by PPG-1-PEG-9 lauryl glycol ether [2] | Structure (SMILES) | amount solubilized by the combination [1] |
| --- | --- | --- |
| up to 100 g per liter | CC(C)c1ccc(O)c(-c2cc(C(C)C)ccc2O)c1 [isopropyl magnolol, 5,5′-di-isopropylbiphenyl-2,2′-diol] |  |
| up to 50 g per liter | CC(C)Cc1ccc(O)c(-c2cc(CC(C)C)ccc2O)c1 [isobutyl magnolol, 5,5′-di-isobutylbiphenyl-2,2′-diol] |  |
| up to 100 g per liter | CCCc1ccc(O)c(-c2cc(CCC)ccc2O)c1 [propyl magnolol, 5,5′-di-n-propylbiphenyl-2,2′-diol] |  |

| Structure (SMILES) | amount solubilized by PPG-1-PEG-9 lauryl glycol ether [2] | amount solubilized by the combination [1] |
| --- | --- | --- |
| CCCCc1ccc(O)c(-c2cc(CCCC)ccc2O)c1 [butyl magnolol, 5,5′-di-n-butylbiphenyl-2,2′-diol] | up to 50 g per liter | up to 100 g per liter |
